Experiments:
SW480 = test: MTT cytotoxicity assay, complex 7; format: cell-based; details: SW480 (Dukes' B) colon cancer line, 24 hr
Protocol: (§1) For cytotoxicity evaluation HT29, SW480 and SW620 cell lines were employed; all the cell lines were grown in RPMI 1640 media (Fischer). All media were supplemented with 10% foetal bovine serum (FBS) and 45 IU/ml penicillin and 45 µg/ml streptomycin and cells were maintained at 37 °C in a 5% CO2 humidified incubator.
(§2) For sterilisation samples were filtered with a 0.2 micron cellulose acetate filter. For cytotoxicological evaluation all samples were prepared fresh on the day of exposure. A stock concentration of test compound was prepared in the exposure media (10% DMEM F-12) necessary for the cell line under test. This sample was vortexed to ensure a uniform dispersion of the compound under test.
(§3) For cytotoxicity assays cells were seeded in 96-well microplates (Nunc, Denmark) at a density of 1 x 10^5 cells/ml for the 24 hr test, 5 x10^4 cells/ml for the 48 hr test and 3 x 10^4 cells/ml for the 96 hr test. […] After 24 h of cell attachment, plates were washed with 100 µl/well phosphate buffered saline (PBS) and the cells were treated with increasing concentrations of each compound for 24 h. Six replicate wells were used for each control and test concentration per microplate. Following the desired time of compound exposure, control medium or test exposures were removed, the cells were rinsed with PBS and 100 µl of fresh medium (without FBS or supplements) was added to each well. 10 µl of MTT (5 mg/ml) prepared in PBS was then added to each well and the plates were incubated for 3 h at 37°C in a 5% CO2 humidified incubator. After this incubation period the medium was discarded, the cells were washed with 100 µl of PBS and 100 µl of DMSO was added to each well to extract the dye. The plate was shaken at 240 rpm for 10 min and the absorbance was measured at 570 nm.
(§4) At least three independent experiments were conducted in triplicate for each cell line and toxicity endpoint. […] Control values were set as 100%. Differences between samples and the control were evaluated using the statistical analysis package SPSS 14.0. Statistically significant differences were set at p≤0.05.

SW620 = test: MTT cytotoxicity assay, complex 7; format: cell-based; details: SW620 (Dukes' C) colon cancer line, 24 hr
Protocol: as §1, §2, §3, §4

pUC18 = test: Nuclease activity: relaxation of supercoiled plasmid DNA, agarose gel; format: biochemical; details: 37 °C; for concentration at which nuclease activity is seen: supercoiled pUC18, 5 hours, no added H2O2, oxidant or reductant
Protocol: Nuclease Activity. Reactions were carried out in a total volume of 20 µL in 0.1 M cacodylate buffer (pH = 6.0) with either 0.5, 2.5, 10 µL of 40 µM complex or 2, 5, 10 µL of 200 µM of complex, which were initially prepared in DMF, then diluted in cacodylate buffer (in which they dissolved), with 1 µL of 0.25 µg/µL pUC18 in cacodylate buffer. The resulting mixtures contained 1, 5, 10, 20, 50 and 100 µM of complex and […] of pUC18. Samples were incubated for 5 hr at 37°C. Quench buffer (3 µL; 0.25% bromophenolblue, 0.25% xylene cyanole and 30% glycerol) was then added and samples were loaded onto agarose gel (0.8%) containing 1.5 µL/100 mL of solution of GelRed™ (10,000X). Electrophoresis was completed at 80 V for 2 hr in 1XTAE buffer.

HT29 [1] = test: MTT cytotoxicity assay, complex 7; format: cell-based, Human; details: HT29 colon cancer line, 24 hr
Protocol: as §1, §2
For cytotoxicity assays cells were seeded in 96-well microplates (Nunc, Denmark) at a density of 1 x 10^5 cells/ml for the 24 hr test, 5 x10^4 cells/ml for the 48 hr test and 3 x 10^4 cells/ml for the 96 hr test. […] After 24 h of cell attachment, plates were washed with 100 µl/well phosphate buffered saline (PBS) and the cells were treated with increasing concentrations of each compound for 24 h. […] The plate was shaken at 240 rpm for 10 min and the absorbance was measured at 570 nm.
At least three independent experiments were conducted in triplicate for each cell line and toxicity endpoint. […] Differences between samples and the control were evaluated using the statistical analysis package SPSS 14.0. […]

CT-DNA [2] = test: DNA-ethidium fluorescence quenching; format: binding, calf; details: Q = equivalent concentration required to reduce fluorescence by 50%; 2.0 µM EtBr, 20 µM DNAp, 2 mM NaOAc buffer, 9.3 mM NaCl, pH 5.0
Protocol: (§5) DNA-Ethidium Fluorescence Quenching. Working solutions containing 20 µM poly[d(AT)]2 (ε260 = 13,100 M(bp)^-1 cm^-1), poly[d(G-C)]2 (ε260 = 16,800 M(bp)^-1 cm^-1) and CT-DNAp (ε260 = 12,824 M(bp)^-1 cm^-1) along with 2.0 µM Et in NaOAc buffer (2 mM NaOAc, 9.3 mM NaCl, 0.1 mM Na2EDTA, pH = 5.0) were prepared. Subsequent experimental steps are identical to the displacement experiment with the exception that a fluorescence reading of 200 arbitrary units with measurements being recorded over a 20-s interval was used. From a plot of the fluorescence vs added drug concentration, the Q values is given by the concentration required to effect 50% removal of the initial fluorescence.

CT-DNA [3] = test: Competitive ethidium bromide displacement; format: binding, calf; details: for Kapp (apparent binding constant): Kapp = Ke x 1.26/C50 where Ke = 9.5 x 10^6 M(bp)^-1; for Kapp (apparent binding constant) / IC50: 1.2 µM EtBr, 1 µM CT-DNAp, pH 7.0; for IC50: final volume 2 mL, 10 mM TES, 0.1 mM Na2EDTA, read-out: C50 = concentration required to reduce fluorescence by 50%
Protocol: Competitive Ethidium Displacement. […] Complexes 4-6, actinomycin D, pentamidine isethionate were prepared at 2.0 mM in DMSO. Two millilitres of DNA-Et solution were placed in a 10-mm quartz cuvet (3 mL) and positioned in a temperature controlled (20°C) spectrofluorometer (Perkin Elmer LS55B Luminescence Spectrometer). Excitation and emission wavelengths were set to 546 and 595 nm, respectively. After thermal equilibrium was established the emission and excitation slits were modified to give a fluorescence reading of 50 arbitrary units with measurements being recorded over a 20-s interval. An aliquot of complex or drug solution was taken (0.5 - 10 µL), was added to the cuvette and after equilibration the fluorescence reading was recorded. Repeated aliquots were added until the fluorescence was 20-40% of the initial control. Triplicate titrations were preformed and the apparent binding constants were calculated using Kapp = Ke x 1.26/C50 where Ke = 9.5 x 10^6 M(bp)^-1.

[4] = tested on: four Human-derived tumor lines; test: MTT assay, summary statements over the four tumor lines; format: cell-based; details: MCF-7, DU145, SK-OV-3, HT29, 24 hours
Protocol: (§6) Human colon cancer cell line, HT29 (passage 17 to 30, ATCC, USA), was grown in McCoys's 5a medium supplemented with 2mM L-glutamine and fetal bovine serum (FBS) 10% and containing 100U/ ml penicillin and 100µg / ml streptomycin at 37°C in a humidified atmosphere with 5% CO2 Human Breast Cancer cell line, MCF-7 (passage 16 to 26, ATCC, USA) was grown in Eagle's minimum essential medium containing 2mM L-glutamine, 100U/ ml penicillin,100µg/ ml streptomycin, FBS (10%), 1mM sodium pyruvate and 1% (v/v) non essential amino acids at 37°C in a humidified atmosphere with 5% CO2 Human prostate cancer cell line, DU145 (passage 12 to 29, ATCC, USA) was grown in Eagle's minimum essential medium containing 2mM L-glutamine, 100U/ ml penicillin, 100µg/ ml streptomycin, FBS (10%), 1mM sodium pyruvate and 1% (v/v) non essential amino acids at 37°C in a humidified atmosphere with 5% CO2. All drugs were tested by MTT assay following 24-hour exposure of cells to each compound. Each value represents the mean IC50 of three independent experiments +/- standard error.
MTT Assay. This method is based on the reduction of the tetrazolium salt, methylthiazolyldiphenyl-tetrazolium bromide (MTT) into a crystalline blue formazan product by the cellular oxidoreductases of viable cells. […] The plates were then shaken for 2 min and the absorbance was read at 550 nm in a Varioscan plate reader. […]

[5] = Solubility in organic solvents; details: DMSO/DMF
poly[d(G-C)]2 = test: DNA-ethidium fluorescence quenching; format: binding; details: Q = equivalent concentration required to reduce fluorescence by 50%; 2.0 µM EtBr, 20 µM DNAp, 2 mM NaOAc buffer, 9.3 mM NaCl, pH 5.0
Protocol: as §5

poly[d(A-T)]2 = test: DNA-ethidium fluorescence quenching; format: binding; details: Q = equivalent concentration required to reduce fluorescence by 50%; 2.0 µM EtBr, 20 µM DNAp, 2 mM NaOAc buffer, 9.3 mM NaCl, pH 5.0
Protocol: as §5

MCF-7 = test: MTT cytotoxicity assay, complexes 1-6; format: cell-based, Human; details: MCF-7 breast cancer, 24 hr exposure, mean of three independent experiments +/- standard error
Protocol: as §6
(§7) MTT Assay. This method is based on the reduction of the tetrazolium salt, methylthiazolyldiphenyl-tetrazolium bromide (MTT) into a crystalline blue formazan product by the cellular oxidoreductases of viable cells. The resultant formazan crystal formation is proportional to the number of viable cells. Cells were seeded at 4x 10^5 cells/ml in 96-well plates and incubated at 37°C in 5% CO2 for 24 hours. Cells were treated with a four log range of concentration of the test compounds in triplicate from 0.1 to 500 µM or with a solvent control (0.5% DMSO) in complete medium. Following 24 h incubation, cells were incubated with 20 µl of MTT (5 mg/ml) in 0.1 M PBS, pH 7.4 at 37 °C in a humid atmosphere with 5% CO2 for 4 h. Media was then gently aspirated from test cultures and 100 µL of dimethyl sulphoxide (DMSO) was added to all wells. The plates were then shaken for 2 min and the absorbance was read at 550 nm in a Varioscan plate reader. The IC50 was defined as the concentration of test compound required to reduce the absorbance of the MTT-formazan crystals by 50%, indicating 50% cell deactivation.

DU145 = test: MTT cytotoxicity assay, complexes 1-6; format: cell-based, Human; details: DU145 prostate cancer, 24 hr exposure, mean of three independent experiments +/- standard error
Protocol: as §6, §7

HT29 [6] = test: MTT cytotoxicity assay, complexes 1-6; format: cell-based, Human; details: HT29 colon cancer, 24 hr exposure, mean of three independent experiments +/- standard error
Protocol: as §6, §7

SK-OV-3 = test: MTT cytotoxicity assay, complexes 1-6; format: cell-based, Human; details: SK-OV-3 ovarian cancer, 24 hr exposure, mean of three independent experiments +/- standard error
Protocol: as §7
Cu(II) bis-phen complexes 4-6 display rapid, low micomolar toxicities against all tumor lines. […] It should be noted that 6 is dinuclear and so contains two active copper units, which may explain this heightened potency.

For “[Cu2(oda)(phen)4](ClO4)2.2.67H2O.C2H5OH [Complex 7]”, the “Activity LD50” value (SW480) was 11.3 µM, the “Activity LD50” value (SW620) was 31 µM and the “'self-activating' nuclease activity (relaxation of SC pUC18), in words” value (pUC18; 1-100 µM complex, 5 hours, no added H2O2 or reductant) was “highly efficient in the cleavage of plasmid DNA”. For the same substance, the “concentration at which nuclease activity is seen” value (pUC18) was ≥ 10 µM, the “Activity LD50” value (HT29 [1]) was 9.61 µM and the IC50 (CT-DNA [2]) was 22.6 µM. The “Kapp (apparent binding constant)” value (CT-DNA [3]) was 2.55x10^5 M(bp)^-1, the “DNA binding ability, in words” value (CT-DNA [3]; competitive EtBr displacement with CT-DNA) was “efficient ability to bind with calf thymus DNA” and the IC50 (CT-DNA [3]) was 46.9 µM.

For “[{Cu{(phen)2}2(terph)](terph)10H2O.3EtOH [Complex 6]”, the “cytotoxicity against all tumor lines, in words” value [4] was “best broad-spectrum activity”, the “concentration at which nuclease activity is seen” value (pUC18) was 1 to 5 µM and the Solubility [5] was “forms only suspensions in DMSO/DMF”. For the same substance, the IC50 (poly[d(G-C)]2) was 10.3 µM, the IC50 (poly[d(A-T)]2) was 8.55 µM and the IC50 (MCF-7) was 7.9 ± 0.4 µM. It also gave an IC50 (DU145) of 5.7 ± 0.2 µM, an IC50 (HT29 [6]) of 5.4 ± 0.3 µM and an IC50 (SK-OV-3) of 6.7 ± 0.4 µM. The “Kapp (apparent binding constant)” value (CT-DNA [3]) was 3.04x10^5 M(bp)^-1 and the IC50 (CT-DNA [3]) was 39.4 µM.
